# Test results as given in patent publication US5591728A, “New phosphonic acid compounds” (Adir Et Compagnie, priority 1993, dated 1997).
# Where a name gives a salt, the structure may show the parent alone.
# Experiments:
# [1] = test system: pressor responses obtained with big ET-1; test: In vitro study on perfused isolated rat kidney: pressor response to big ET-1; set-up: species or system male Wistar rats; settings: big ET-1 0.4 nmol bolus
# Procedure: The studies are performed on kidneys prepared from male Wistar rats (300400 g). The rats are anesthetized with pentobarbitone sodium (50 mg/kg i.p.) and the left kidney is prepared so as to permit perfusion with Tyrode solution. The variations in perfusion pressure are measured continuously. The perfusion flow rate is 6 ml/min. After stabilization, a bolus injection of ET- 1 (0.03 nmol) or of big ET-1 (0.4 nmol) is performed and the pressor response is recorded. […] The IC50 values of the products are calculated and the results are given in μM.
# [2] = test system: big ET-1-induced pressor responses (inhibition of ECE); test: In vivo study on pithed rats: big ET-1-induced pressor response; set-up: species or system Sprague-Dawley rats; settings: for IC50 with respect to big ET-1: big ET-1 1 nmol/kg injection, product given by infusion
# Excerpt: (§1) Sprague-Dawley rats (300400 g) are anesthetized with ether. The animals are then pithed and placed under artificial respiration. The vagus nerves are sectioned and the carotid arteries ligated. A catheter is introduced into one of the carotid arteries to measure arterial blood pressure. A second catheter is introduced into the vein of the penis to enable substances to be injected.
# After a stabilization period, the animals receive an injection of endothelin-1 (ET-1; 0.5 nmol/kg) or its precursor, big endothelin-1 (big ET-1; 1 nmol/kg).
# [3] = test system: ET-1-induced hypertension; test: In vivo study on pithed rats: ET-1-induced hypertension; set-up: species or system Sprague-Dawley rats; settings: ET-1 0.5 nmol/kg
# Excerpt: as §1
# After a stabilization period, the animals receive an injection of endothelin-1 (ET-1; 0.5 nmol/kg) or its precursor, big endothelin-1 (big ET-1; 1 nmol/kg). The pressor responses are recorded and, after the pressure has returned to its initial value (1 h 30 min to 2 hours), a second injection of ET-1 or of big ET-1 is given in the presence or absence of an infusion of a product of the invention or of the reference substance, phosphoramidon. Phosphoramidon and the products of the invention had no effect on ET-1-induced hypertension.
compound,measurement,setting,value
"CC(C)C[C@H](NP(=O)(O)OCC(O)CO)C(=O)N[C@@H](Cc1c[nH]c2ccccc12)C(=O)O (stereo partly drawn) [Example 1, N-[(2,3-Dihydroxypropoxy)hydroxyphosphinyl]-(S)Leu-(S) Trp-OH disodium salt]",IC50,[1],4 µM
same,IC50 with respect to big ET-1,[2],100 µg/kg/min
"CCOC(=O)[C@H](Cc1c[nH]c2ccccc12)NC(=O)[C@H](CC(C)C)NP(=O)(O)OCCO [Example 3, N-[(2-Hydroxyethoxy)hydroxyphosphinyl]-(S)Leu-(S)Trp-OEt disodium salt]",IC50,[1],5 µM
same,IC50 with respect to big ET-1,[2],280 µg/kg/min
"CC(C)C[C@H](NP(=O)(O)OC(CO)CO)C(=O)N[C@@H](Cc1c[nH]c2ccccc12)C(=O)O [Example 8, N-{[(1-Hydroxymethyl-2-hydroxy)ethoxy]hydroxyphosphinyl]-(S)Leu-(S) Trp-OH dilithium salt]",IC50 with respect to big ET-1,[2],480 µg/kg/min
"CC(C)C[C@H](NP(=O)(O)OCCC(O)CO)C(=O)N[C@@H](Cc1c[nH]c2ccccc12)C(=O)O (stereo partly drawn) [Example 12, N-[(3,4-Dihydroxybutoxy)hydroxyphosphinyl]-(S)Leu-(S) Trp-OH dilithium salt]",IC50 with respect to big ET-1,[2],140 µg/kg/min
"CCOC(=O)[C@H](Cc1c[nH]c2ccccc12)NC(=O)[C@H](CC(C)C)NP(=O)(O)OCCCN [Example 9, N-[(3-Aminopropoxy)hydroxyphosphinyl]-(S)Leu-(S)Trp-OEt lithium salt]",IC50 with respect to big ET-1,[2],200 µg/kg/min
"CC(C)C[C@H](NP(=O)(O)O[C@@H]1O[C@@H](C)[C@H](O)[C@@H](O)[C@H]1O)C(=O)N[C@@H](Cc1c[nH]c2ccccc12)C(=O)[O-].CC(C)C[C@H](NP(=O)(O)O[C@@H]1O[C@@H](C)[C@H](O)[C@@H](O)[C@H]1O)C(=O)N[C@@H](Cc1c[nH]c2ccccc12)C(=O)[O-].[Na+].[Na+] [Phosphoramidon, N-[α-(S)-(rhamnopyranosyloxy) hydroxyphosphinyl]-(S)leu-(S) Trp-OH disodium salt, reference compound]",IC50,[1],0.9 µM
same,inhibition of pressor responses obtained with big ET-1,[1]; in words,substantially inhibited
same,IC50 with respect to big ET-1,[2],125 µg/kg/min
same,inhibition of big ET-1-induced pressor responses,"[2]; big ET-1 1 nmol/kg, in words",inhibited big ET-1-induced pressor responses in a dose-dependent manner
same,effect on ET-1-induced hypertension,[3],no effect
"N-[((R)-2,3-Dihydroxypropoxy)hydroxyphosphinyl]-(S)Leu-(S)Trp-OH dilithium salt [Example 10]",IC50 with respect to big ET-1,[2],230 µg/kg/min
"N-[((S)-2,3-Dihydroxypropoxy)hydroxyphosphinyl]-(S)Leu-(S)Trp-OH dilithium salt [Example 11]",IC50 with respect to big ET-1,[2],100 µg/kg/min
"CC(C)C[C@H](NP(=O)(O)OCCO)C(=O)N[C@@H](Cc1c[nH]c2ccccc12)C(=O)O [Example 4, N-[(2-Hydroxyethoxy)hydroxyphosphinyl]-(S)Leu-(S)Trp-OH disodium salt]",IC50,[1],7 µM
same,IC50 with respect to big ET-1,[2],430 µg/kg/min
